In US20090061515A1, “Methods of inhibiting or suppressing cellular proliferation” (priority 2007, published 2009):

Tests used:
Format in all cases: cell-based
[1] = tested on: Normal Human Dermal Fibroblast (NHDF) cells; test: Cell count and visual morphology of NHDF after exposure and after re-plating (Example 3); conditions: for cell count: NHDF seeded at 45,000 cells/well, 48 hours of exposure; for growth after re-plating without compound: then 96 hours in fresh media without compound
Method: The 5,6-dihydroxy-hexan-2-one (1.2 grams) was dissolved in 12 ml of phosphate buffered saline and was filter sterilized through a 0.22 micrometer syringe filter prior to use. The 5,6-dihydroxy-hexan-2-one was further diluted to 10^−1, 10^−2, 10^−3, 10^−4, 10^−5, and 10^−6 using serial dilutions for the evaluation.
NHDF were seeded at 45,000 cells/well in 24 well plate(s). Cells were grown for 72 hours, 48 hours of which was done in the presence of the test chemicals. 24 hours after seeding, 5,6-dihydroxy-hexan-2-one was added to the cell culture plates (2 ml/well). Assay plates were pulled for analysis at 24 and 48 hours after addition of the chemical compound. Samples were analyzed on the above-described assay as provided in the instructions for use of the assay.
Cell counts were taken after the cells had been plated for 72 hours and exposed to 5,6-dihydroxy-hexan-2-one for 48 hours.
After 48 hours of exposure to 5,6-dihydroxy-hexan-2-one, a cell count was taken on the 10^−1 concentration group and the 10^−6 concentration group. The 10^−1 cell count was 45,000 cells/well and the 10^−6 cell count was 275,000 cells/well. The count for the 10^−1 concentration group yielded the same number of cells that were previously seeded, while the 10^−6 concentration group had continued to grow rapidly without problems. Cells from these two different groups were then plated out at the same density as before, but without exposure to 5,6-dihydroxy-hexan-2-one and in fresh media for 96 hours. Visual representations of these two groups can be seen in FIG. 5 (10^−1, exposed to 5,6-dihydroxy-hexan-2-one for 48 hours, continued the culture for an additional 96 hours without 5,6-dihydroxy-hexan-2-one) and FIG. 6 (10^−6, exposed to 5,6-dihydroxy-hexan-2-one for 48 hours, continued the culture for an additional 96 hours without 5,6-dihydroxy-hexan-2-one).

[2] = tested on: Normal Human Dermal Fibroblasts (NHDF); test: Cell growth / cell counts of NHDF during exposure and 96 hours after removal (Example 4); conditions: for Cell Counts after exposure and additional 96 hours with compound removed: NHDF re-seeded at 45,000 cells/well; for cell growth during exposure, in words: 24 and 48 hours of exposure
Method: Examination of the cell growth effects upon 24 hour and 48 hour exposure of Normal Human Dermal Fibroblasts (NHDF) to 5,6-dihydroxy-hexan-2-one. After the 24 hour or 48 hour exposures, the 5,6-dihydroxy-hexan-2-one was removed and the cells were allowed to grow for an additional 96 hours, then evaluated for growth.
The assay used was a luminescent cell viability assay available under the trade designation CellTiter-Glo from Promega Corporation (Madison, Wis.). This assay determines the number of viable cells present based on the amount of adenosine triphosphate (ATP) present from the cell cytoplasm. The concentration of ATP present is proportional to the measured amount of a luminescent signal. […] The Normal Human Dermal Fibroblasts were available from Clonetics Corporation (San Diego, Calif.).
The 5,6-dihydroxy-hexan-2-one (1.2 grams) was dissolved in 12 ml of phosphate buffered saline and was filter sterilized through a 0.22 micrometer syringe filter prior to use. The 5,6-dihydroxy-hexan-2-one was further diluted to 10^−1, 10^−2, and 10^−3 using serial dilutions for the evaluation.
NHDF were seeded at 45,000 cells/well in four 24 well plates (two testing cell growth and two to re-seed after 24 and 48 hours without 5,6-dihydroxy-hexan-2-one). 24 hours after seeding, 5,6-dihydroxy-hexan-2-one was added to the cell culture plates (2 ml/well) at a concentration of 10^−1, 10^−2, and 10^−3. Assay plates were pulled for cell growth analysis at 24 and 48 hours after addition of the chemical compound. Samples were analyzed on the above-described assay according to a published method. The other two assay plates were washed and re-seeded at 45,000 cells/well at 24 and 48 hour time points without the presence of 5,6-dihydroxy-hexan-2-one. Both plates were grown for an additional 96 hours before a cell count was taken.
To determine proliferation potential post-exposure, cells were reseeded after exposure to 5,6-dihydroxy-hexan-2-one as follows. Additional groups of cells exposed to 5,6-dihydroxy-hexan-2-one for 24 and 48 hours were then washed thoroughly to remove 5,6-dihydroxy-hexan-2-one and harvested from the culture substrate. Those cells were then plated out at the same density as before, but without exposure to 5,6-dihydroxy-hexan-2-one. These two groups were supplied with fresh media and allowed to grow for 96 additional hours. Visual representation of the 10^−1 and 10^−2 groups can be seen in FIG. 15 (10^−1, re-seeded without 5,6-dihydroxy-hexan-2-one for 96 hours) and FIG. 16 (10^−2, re-seeded without 5,6-dihydroxy-hexan-2-one for 96 hours).

[3] = tested on: Normal Human Dermal Fibroblast (NHDF) cells; test: Cell migration into scraped monolayer, NHDF (Example 5); conditions: 1 and 10 mg/ml, 48 hours exposure then 72 hours growth
Method: In a similar manner, cell migration was explored in vitro by scraping the cell monolayer and culturing the cells in the presence of 5,6-dihydroxy-hexan-2-one at concentrations of 1 mg/ml and 10 mg/ml. FIGS. 20(a)-(l) are pictures that visually display the migration of coronary artery smooth muscle cells (CASMC) (FIGS. 20(a)-(f)) and normal human dermal fibroblast (NHDF) cells (FIGS. 20(g)-(l)) exposed to various concentrations of 5,6-dihydroxy-hexan-2-one after 48 hours exposure, then cultured an additional 72 hours after removal of the 5,6-dihydroxy-hexan-2-one as described in Example 5. Specifically, FIGS. 20(a) and (b) represent the CASMC control at time zero and 72 hours, respectively; FIGS. 20(c) and (d) represent CASMC (10 mg/ml) at time zero and 72 hours, respectively; and FIGS. 20(e) and (f) represent CASMC (1 mg/ml) at time zero and 72 hours, respectively. FIGS. 20(g) and (h) represent the NHDF cell control at time zero and 72 hours, respectively; FIGS. 20(i) and (j) represent NHDF cells (10 mg/ml) at time zero and 72 hours, respectively; and FIGS. 20(k) and (l) represent NHDF cells (1 mg/ml) at time zero and 72 hours, respectively.
Cell migration judged by the ability of cells to repopulate the scraped “acellular” space over time indicated no microscopically identifiable effect by the agent at the concentrations tested. […]

- visual morphological study ([1]; NHDF, 10^-1 concentration, 24 and 48 hours): signs of cell distress
Compound: CC(=O)CCC(O)CO (stereo not shown) [5,6-dihydroxy-hexan-2-one]
- cell count ([1]; 10^-1 concentration): 45,000 cells/well
- cell count ([1]; 10^-6 concentration): 275,000 cells/well
- growth after re-plating without compound ([1]; NHDF, 10^-1, exposed 48 hours): impaired ability for cell proliferation
- visual physical cellular response ([1]; NHDF, 10^-1 concentration, 48 hours): Fewer human dermal fibroblasts cells were observed
- growth after re-plating without compound ([1]; NHDF, 10^-6, exposed 48 hours): continued to grow without problems
- Cell Counts after exposure and additional 96 hours with compound removed ([2]; 0.1 mg/ml, 24 Hour Group): 200,000 cells
- Cell Counts after exposure and additional 96 hours with compound removed ([2]; 0.1 mg/ml, 48 Hour Group): 207,500 cells
- Cell Counts after exposure and additional 96 hours with compound removed ([2]; 1 mg/ml, 24 Hour Group): 172,000 cells
- Cell Counts after exposure and additional 96 hours with compound removed ([2]; 1 mg/ml, 48 Hour Group): 165,000 cells
- Cell Counts after exposure and additional 96 hours with compound removed ([2]; 10 mg/ml, 24 Hour Group): 55,000 cells
- Cell Counts after exposure and additional 96 hours with compound removed ([2]; 10 mg/ml, 48 Hour Group): 65,000 cells
- Cell Counts after exposure ([2]; NHDF, 0.1 mg/ml, 24 Hour Group): 180,000 cells
- Cell Counts after exposure ([2]; NHDF, 0.1 mg/ml, 48 Hour Group): 305,000 cells
- Cell Counts after exposure ([2]; NHDF, 1 mg/ml, 24 Hour Group): 160,000 cells
- Cell Counts after exposure ([2]; NHDF, 1 mg/ml, 48 Hour Group): 150,000 cells
- Cell Counts after exposure ([2]; NHDF, 10 mg/ml, 24 Hour Group): 65,000 cells
- Cell Counts after exposure ([2]; NHDF, 10 mg/ml, 48 Hour Group): 80,000 cells
- cell growth during exposure, in words ([2]; NHDF, 10^-1 concentration group): only a minimal amount of growth
- cell growth after 96 hours without compound, in words ([2]; NHDF, 10^-1 group, after withdrawal): significant inhibition of cell growth
- cell growth during exposure, in words ([2]; NHDF, 10^-2 concentration group): reduced from the control
- cell growth after 96 hours without compound, in words ([2]; NHDF, 10^-2 group, after withdrawal): slight reduction of cell growth
- cell growth after withdrawal, in words ([2]; NHDF, 10^-3 concentration (lowest tested), after withdrawal): behave similar to controls
- cell growth during exposure, in words ([2]; NHDF, 10^-3 concentration group): continued to grow without problems
- cell migration [3]: not affected
